{
  "source": "patent US20230338363A1",
  "about": "“COMBINATION CHEMO-IMMUNOTHERAPY FOR PANCREATIC CANCER USING THE IMMUNOGENIC EFFECTS OF AN IRINOTECAN SILICASOME NANOCARRIER PLUS ANTI-PD-1” (The Regents of the University of California, priority 2020, published 2023)",
  "key": {"orthotopic KPC tumor [1]": {"tested_on": "orthotopic KPC tumor", "assay": "Survival experiment, IRIN silicasome plus anti-PD-1 in orthotopic KPC tumor model", "type": "in vivo, mouse", "protocol": "Panel A) Explanation of the KPC model, including orthotopic implant in the pancreas and technical development of the primary tumor and metastases that can be followed by IVIS imaging. Animals were sacrificed according to the moribund criteria shown. Panel B). Details of the survival experiment in tumor-bearing mice (n = 5-7), which were treated with free IRIN or the silicasome at an IRIN dose equivalent of 40 mg/kg IV every 3- or 4-days, with or without IP administration of 100 µg anti-PD-1 antibody, for a total of six administrations. Please notice that the antibody was administered two days after IRIN injection. Saline and anti-PD-1 antibody alone were used as controls. Kaplan-Meier plots were used to display the survival rate of the different animal groups (*p<0.05, Log Rank test).\nThe KPC-derived orthotopic tumor model in immunocompetent B6129SF1/J mouse was established as described in FIG. 4, panel A. ^[16] Briefly, 30 µL of DMEM/Matrigel (1:1 v/v), containing ~1×10^6 KPC-luc cells, was injected into the tail of the pancreas in female B6129SF1/J mice (8~10 weeks) by a short survival surgery procedure.^[16] In the first survival experiment (FIG. 4, panel B), tumor-bearing mice were randomly assigned into 6 groups (n = 5-7) and received IV injection of the IRIN formulations at API dose of 40 mg/kg. Anti-PD-1 antibody was injected at 100 µg/animal IP. To assess survival rate, animals were monitored daily up to the stage of spontaneous death or approaching moribund status (defined in FIG. 4, panel A)^[16, 36]. The survival data were plotted as Kaplan-Meier curves, followed by data analysis to derive mean survival time. Statistical analysis and p values were obtained by Log Rank testing (Mantel-Cox), using GraphPad Prism 7.00 software."}, "orthotopic KPC tumor [2]": {"tested_on": "orthotopic KPC tumor", "assay": "Efficacy and immune parameters (IVIS, IHC) in orthotopic KPC tumor model", "type": "in vivo, mouse", "protocol": "Panels B and C) IHC analysis to determine CRT (panel B) and LC3B (panel C) expression at the orthotopic tumor site. Imaging intensity was quantitatively expressed as fold increase that was normalized to the saline group. Representative IHC images are shown on the right. Bar is 50 µm. Panel D) Quantitative assessment of HMGB 1 release. The IHC images were analyzed by Aperio ImageScope software to determine protein released from the damaged nuclei, as described in FIG. 22. Data are expressed as mean ± SEM, n=3. *, p<0.05; **, p<0.01; ***, p<0.001 (1-way ANOVA followed by a Tukey’s test).\nAdditional IHC analysis was undertaken using the tumor samples collected in FIG. 5, panel A. Quantitative assessment of: Panel A) the CD8^+/ FoxP3^+ cell ratio; Panel B), perforin; Panel C) granzyme B; Panel D) IFN-γ production; and Panel E) PD-L1 expression. Representative IHC images appear in FIG. 18, panels A-C. Data are expressed as mean ± SEM, n=3. *, p<0.05; **, p<0.01; ***, p<0.001 (1-way ANOVA followed by a Tukey’s test).\nTumor-bearing mice received IV injection to deliver an IRIN dose of 40 mg/kg (free IRIN or IRIN silicasome) per injection every 3 days for a total of 3 administrations. Control animals received saline only. Animals were sacrificed 72 h after the last injection. To confirm the impact on tumor growth, ex vivo bioluminescence imaging was performed to assess image intensity at the primary and metastatic tumor sites. Primary tumors were fixed in 10% formalin, followed by paraffin embedding and sectioning to provide 4 µm slices for IHC analysis in the UCLA Translational Pathology Core Laboratory (TPCL). The slides were scanned and images were assessed by using Aperio ImageScope software (Leica). Primary antibodies to CD8 (#14-0808-82) and FoxP3 (#13-5773-82) were purchased from ThermoFisher; CRT (ab2907), while antibodies to HMGB1 (ab18256), granzyme B (ab4059), perforin (ab16074) and IFN-γ (ab9657) were purchased from Abcam. The antibody to LC-3 (#0231-100/LC3-5F10) was purchased from Nanotools, while the antibody to PD-L1 (#64988) was purchased from Cell Signaling Technology."}, "PANC-1 cells": {"tested_on": "PANC-1 cells", "assay": "Confirmative cellular studies (alkalization, autophagy inhibition, PD-L1 induction)", "type": "cell-based, human", "details": "equivalent drug concentration 300 µM, 24 hrs", "protocol": "To confirm the effect of IRIN, another PDAC cell line, i.e. PANC-1 cells, were used to study IRIN induced alkalization effect (panel A), autophagy inhibition (panel B) and PD-L1 induction (panel C). The treatments included free IRIN, IRIN silicasome and empty silicasome at equivalent drug concentration of 300 µM for 24 hrs. PBS served as a negative control. Bars: 10 µm. Signal intensity was quantified by Image J. At least three representative images were analyzed for each treatment. Data represents mean ± SD, n = 3. *p<0.05, **p<0.01, ***p<0.001 (1-way ANOVA followed by a Tukey’s test). […] No significant effect was observed when empty silicasome was tested."}},
  "note": "Structures can show the parent of a compound that is named as a salt.",
  "data": [
    {"smiles": "CCc1c2c(nc3ccc(OC(=O)N4CCC(N5CCCCC5)CC4)cc13)-c1cc3c(c(=O)n1C2)COC(=O)[C@]3(O)CC", "note": "[IRIN, Irinotecan hydrochloride trihydrate]", "values": [
      {"measurement": "MST (median survival time)", "setting": "orthotopic KPC tumor [1]; IRIN 40 mg/kg IV, anti-PD-1 100 µg IP, six administrations, saline 19", "result": 19, "unit": "days"},
      {"measurement": "survival (Kaplan-Meier, Log Rank test)", "setting": "orthotopic KPC tumor [1]; IRIN 40 mg/kg IV, anti-PD-1 100 µg/mouse IP", "result": "no survival benefits"},
      {"measurement": "% ILS (% increase in life span, [(T - C)/C] × 100)", "setting": "orthotopic KPC tumor [1]; vs. saline", "result": 0.0, "unit": "%"},
      {"measurement": "tumor size by bioluminescence intensity (IVIS) vs saline", "setting": "orthotopic KPC tumor [2]; 40 mg/kg IV on days 8, 11, 14, sacrifice day 17", "result": "not statistically significant"},
      {"measurement": "IFN-γ production in the TME (IHC)", "setting": "orthotopic KPC tumor [2]; 40 mg/kg IV x3", "result": "significant increase"},
      {"measurement": "LC3B staining intensity at tumor site (IHC)", "setting": "orthotopic KPC tumor [2]; 40 mg/kg IV x3", "result": "significantly increased staining intensity"},
      {"measurement": "lysosomal pH, LC-3B generation and PD-L1 expression", "setting": "PANC-1 cells", "result": "capable of neutralizing lysosomal pH, triggered LC-3B generation and increase PD-L1 expression"}
    ]}
  ]
}
